Reference: patent US12208071B2, “Glucagon receptor antagonists” (LIGAND PHARMACEUTICALS INCORPORATED, priority 2018, dated 2025)
“Also recorded” adds a separate entry of the source.

Experiments:
Assay type in all cases: physicochemical
[1] = Photostability / solid stability under light (5000 lux)
Procedure: Photostability testing was conducted on Polymorph Form A at 1- and 2-week intervals under light conditions of 5000 lux with the sample held at room temperature. The samples were tested for appearance, purity (HPLC), total related substances (TRS), and XRPD. The only change observed in the photostability samples was a decrease in purity of 0.6% at the 1-week interval.
About 3 mg Polymorph Form A was weighed in glass vials and samples stored under light condition (5000 lx) for 1 week and 2 weeks, separately. Another 20 mg testing compound was weighed in glass vials and the samples stored under light condition for 1 week and 2 weeks, separately. The original compound was stored at −20° C. as the control. The physical appearance, assay, total related substances (TRS) and XRPD pattern were checked at the end of the 1st week and the 2nd week.

[2] = Intrinsic dissolution rate (IDR); details: for Detection in dissolution medium (IDR test): total 120 min
Procedure: Testing media: water, 0.1N HCl, pH 6.8 USP buffer
About 200 mg Polymorph Form A was weighed into the intrinsic dissolution apparatus (diameter: 0.795 cm) and compressed for 1 minute with 1 ton compression force to make the material compact. The intrinsic dissolution apparatus was slid into the dissolution test chuck and tightened. The shaft in the spindle was adjusted to ensure the exposed surface of the compacted tablet was 3.8 cm from the bottom of the vessel when lowered. The temperature of chamber water was set at 37° C., the shaft rotation at 100 rpm, and the sampling time points at 2, 5, 10, 15, 20, 30, 45, 60, 90 and 120 min. 5 mL of solution was sampled at each time point, and the samples filtered with 0.45 μm filter. The concentration of the filtrates was analyzed by HPLC.

[3] = Long-term stability (ICH), 25° C./60% RH
Procedure: Polymorph Form A was manufactured under Good Manufacturing Practices (GMP)-compliant conditions at a scale of 1.26 kg. The container closure for the batch consisted of double-lined low density polyethylene bags placed inside fiberboard drums, and the batch was on ICH stability under storage conditions of 25° C./60% relative humidity (RH) and 40° C./75% RH. Long-term stability data through the 36-month interval and accelerated stability data through the 6-month interval are shown in Tables 2 and 3.
Stability samples were tested according to the protocol (Table 5) and to the same specification as the drug substance. The available stability data for samples stored at 25° C./60% RH and 40° C./75% RH are summarized.

[4] = 5000 Lux, open container, 0 weeks
[5] = 5000 Lux, open container, 1 week
[6] = 5000 Lux, open container, 2 weeks

## Cc1cc(C)c(-c2ccc(NC(=O)[C@H](Cc3ccc(C(=O)NCCS(=O)(=O)[O-])cc3)c3ccc(-c4ccc(C(C)(C)C)cc4)cc3)cc2)c(C)c1.[Na+] [Polymorph Form A, Sodium (R)-2-(4-(2-(4′-(tert-butyl)-[1,1′-biphenyl]-4-yl)-3-oxo-3-((2′,4′,6′-trimethyl-[1,1′-biphenyl]-4-yl)amino)propyl)benzamido)ethane-1-sulfonate]
[1]; [4]
  Appearance: White powder
  Purity (area %): 99.8 area %
  Total related substances (area %, w/w): 0.25 area %, w/w
[1]; [5]
  Appearance: White powder
  Purity (area %): 99.2 area %
  Total related substances (area %, w/w): 0.25 area %, w/w
  XRPD: Same form
[1]; [6]
  Appearance: White powder
  Purity (area %): 99.2 area %
  Total related substances (area %, w/w): 0.25 area %, w/w
  XRPD: Same form
[1]; 5000 lux, 2 weeks
  stability under light condition (overall): No significant changes; also recorded: No significant increase in TRS % or decrease in recovery %; also recorded: relatively stable
[1]; 5000 lux, room temperature, 1-week interval
  decrease in purity: 0.6%
[1]; light (5000 lx), 1 week
  Appearance: white powder
  TRS %: 0.25%
  XRPD pattern: Form A
[1]; light (5000 lx), 2 weeks
  Appearance: white powder
  TRS %: 0.25%
  XRPD pattern: Form A
[1]; −20° C., 0 day (control)
  Appearance: white powder
  TRS %: 0.25%
  XRPD pattern: Form A
[2]; 0.1N HCl
  Detection in dissolution medium (IDR test): could not be detected
[2]; Water, 37° C., 100 rpm, from data of 10, 15 and 20 min
  Intrinsic dissolution rate (mg/cm^2/min): 0.9681 mg/cm^2/min
[2]; pH 6.8 USP buffer
  Detection in dissolution medium (IDR test): could not be detected
[2]; water, within 5 min, not detected, LOQ
  Concentration in dissolution medium (IDR test): < 305.1 ng/mL
[3]; 25° C./60% RH, 0 months
  Appearance: White
  Assay (anhydrous w/w %): 101.3 w/w %
  Chiral purity (area %): 99.9 area %
  Individual related substance (area %, w/w), RRT 0.46: 0.08 area %, w/w
  Individual related substance (area %, w/w), RRT 0.64: 0.12 area %, w/w
  Individual related substance (area %, w/w), RRT 1.20: 0.05 area %, w/w
  Purity (% area): 99.8 % area
  Total related substances: 0.25%
  Water content (%): 2.1%
[3]; 25° C./60% RH, 3 months
  Appearance: White
  Assay (anhydrous w/w %): 102.5 w/w %
  Chiral purity (area %): 99.8 area %
  Individual related substance (area %, w/w), RRT 0.46: 0.08 area %, w/w
  Individual related substance (area %, w/w), RRT 0.64: 0.12 area %, w/w
  Individual related substance (area %, w/w), RRT 1.20: 0.05 area %, w/w
  Purity (% area): 99.8 % area
  Total related substances: 0.25%
  Water content (%): 6.1%
[3]; 25° C./60% RH, 6 months
  Appearance: White
  Assay (anhydrous w/w %): 101.1 w/w %
  Chiral purity (area %): 99.8 area %
  Individual related substance (area %, w/w), RRT 0.46: 0.08 area %, w/w
  Individual related substance (area %, w/w), RRT 0.64: 0.11 area %, w/w
  Individual related substance (area %, w/w), RRT 1.20: 0.05 area %, w/w
  Purity (% area): 99.8 % area
  Total related substances: 0.24%
  Water content (%): 6.5%
  XRPD: Same
[3]; 25° C./60% RH, 9 months
  Appearance: White
  Assay (anhydrous w/w %): 101.1 w/w %
  Chiral purity (area %): 99.6 area %
  Individual related substance (area %, w/w), RRT 0.46: 0.08 area %, w/w
  Individual related substance (area %, w/w), RRT 0.64: 0.12 area %, w/w
  Individual related substance (area %, w/w), RRT 1.20: 0.05 area %, w/w
  Purity (% area): 99.8 % area
  Total related substances: 0.25%
  Water content (%): 6.7%
[3]; 25° C./60% RH, 12 months
  Appearance: White
  Assay (anhydrous w/w %): 101.0 w/w %
  Chiral purity (area %): 99.4 area %
  Individual related substance (area %, w/w), RRT 0.46: 0.08 area %, w/w
  Individual related substance (area %, w/w), RRT 0.64: 0.11 area %, w/w
  Individual related substance (area %, w/w), RRT 1.20: 0.05 area %, w/w
  Purity (% area): 99.8 % area
  Total related substances: 0.24%
  Water content (%): 7.0%
  XRPD: Same
[3]; 25° C./60% RH, 18 months
  Appearance: White
  Assay (anhydrous w/w %): 100.9 w/w %
  Chiral purity (area %): 99.5 area %
  Individual related substance (area %, w/w), RRT 0.46: 0.08 area %, w/w
  Individual related substance (area %, w/w), RRT 0.64: 0.12 area %, w/w
  Individual related substance (area %, w/w), RRT 1.20: 0.06 area %, w/w
  Purity (% area): 99.7 % area
  Total related substances: 0.26%
  Water content (%): 6.9%
[3]; 25° C./60% RH, 24 months
  Appearance: White
  Assay (anhydrous w/w %): 101.6 w/w %
  Chiral purity (area %): 100.0 area %
  Individual related substance (area %, w/w), RRT 0.46: 0.08 area %, w/w
  Individual related substance (area %, w/w), RRT 0.64: 0.12 area %, w/w
  Individual related substance (area %, w/w), RRT 1.20: 0.07 area %, w/w
  Purity (% area): 99.7 % area
  Total related substances: 0.27%
  Water content (%): 7.4%
  XRPD: Same
[3]; 25° C./60% RH, 36 months
  Appearance: White
  Assay (anhydrous w/w %): 101.4 w/w %
  Chiral purity (area %): 99.8 area %
  Individual related substance (area %, w/w), RRT 0.31: 0.05 area %, w/w
  Individual related substance (area %, w/w), RRT 0.46: 0.08 area %, w/w
  Individual related substance (area %, w/w), RRT 0.64: 0.12 area %, w/w
  Individual related substance (area %, w/w), RRT 1.20: 0.05 area %, w/w
  Purity (% area): 99.7 % area
  Total related substances: 0.3%
  Water content (%): 7.5%
  XRPD: Same
[3]; long-term condition through the 36-month interval
  anhydrous assay value: around 101%
[3]; stored at 25° C./60% RH and 40° C./75% RH
  changes in assay value, total related substances, physical description, or solid state form (XRPD): No significant changes
[3]; stored at 25° C./60% RH and 40° C./75% RH, remained constant
  Total related substances: around 0.25%
